We go through five substances from publication PMC9941179, “Preparation and activity evaluation of angiotensin-I converting enzyme inhibitory peptides from protein hydrolysate of mulberry leaf” (Frontiers in Nutrition, 2023).

Read-outs that look alike come from different tables or passages of the source. Where no end group is shown, it is not given here.

Assay [1] deals with ACE. The note with it: 0.05 mg/L; peptide from broccoli; ref Zhang et al. ([21]); cited from earlier work. From the text: It is of high research value to develop efficient antihypertensive products around botanical angiotensin- I converting enzyme (ACE) inhibitory peptides ([11]). Hypertension is a standard chronic disease and the most critical risk factor for cardio-cerebrovascular disease ([12]). The pathogenesis of hypertension is associated with the renin tensin system (Renin-Angiotensin System, RAS) ([13], [14]). RAS contains two key enzymes: hypertension proteinase (Renin) and ACE ([15]). Therefore, inhibiting the enzyme activity of Renin and ACE is one of the treatments for hypertension ([16], [17]). ACE b ...

Assay [2] addresses T1, ACE (Homo sapiens, UniProt P12821).
T1 construct: purchased Tong Ren Chemical Co., Ltd. (Institute of Tongren Chemistry, Japan) ACE Kit-WST
In words: ACE inhibitory activity of synthetic peptides. In kind it is biochemical. The protocol:
The ACE inhibitory activity was determined by ACE Kit-WST (Institute of Tongren Chemistry, Japan). Taking ultra-pure water as blank control, the inhibitory activity of ACE was calculated.
Pinhibitoryrate%=ABlack1-ASample/ABlack1-ABlack2×100%
Each experimental procedure was performed three times, and data were expressed as the mean ± standard deviation. Statistical analyses were conducted by one-way analysis of variance using IBM SPSS 20 (SPSS Inc., Chicago, USA). Duncan’s test was applied to determine the significance of multiple groups. The P-value <0.05 was considered statistically significant.
All the peptides were commercially synthesized and their ACE activity was determined (Figure 8).

[3] abbreviates: synthetic peptide, IC50 used as inhibitor concentration in kinetics, read-out: IC50 (peptide concentration in Table 7) (converted).

T1 sequence (P12821 30-1306, species assumed): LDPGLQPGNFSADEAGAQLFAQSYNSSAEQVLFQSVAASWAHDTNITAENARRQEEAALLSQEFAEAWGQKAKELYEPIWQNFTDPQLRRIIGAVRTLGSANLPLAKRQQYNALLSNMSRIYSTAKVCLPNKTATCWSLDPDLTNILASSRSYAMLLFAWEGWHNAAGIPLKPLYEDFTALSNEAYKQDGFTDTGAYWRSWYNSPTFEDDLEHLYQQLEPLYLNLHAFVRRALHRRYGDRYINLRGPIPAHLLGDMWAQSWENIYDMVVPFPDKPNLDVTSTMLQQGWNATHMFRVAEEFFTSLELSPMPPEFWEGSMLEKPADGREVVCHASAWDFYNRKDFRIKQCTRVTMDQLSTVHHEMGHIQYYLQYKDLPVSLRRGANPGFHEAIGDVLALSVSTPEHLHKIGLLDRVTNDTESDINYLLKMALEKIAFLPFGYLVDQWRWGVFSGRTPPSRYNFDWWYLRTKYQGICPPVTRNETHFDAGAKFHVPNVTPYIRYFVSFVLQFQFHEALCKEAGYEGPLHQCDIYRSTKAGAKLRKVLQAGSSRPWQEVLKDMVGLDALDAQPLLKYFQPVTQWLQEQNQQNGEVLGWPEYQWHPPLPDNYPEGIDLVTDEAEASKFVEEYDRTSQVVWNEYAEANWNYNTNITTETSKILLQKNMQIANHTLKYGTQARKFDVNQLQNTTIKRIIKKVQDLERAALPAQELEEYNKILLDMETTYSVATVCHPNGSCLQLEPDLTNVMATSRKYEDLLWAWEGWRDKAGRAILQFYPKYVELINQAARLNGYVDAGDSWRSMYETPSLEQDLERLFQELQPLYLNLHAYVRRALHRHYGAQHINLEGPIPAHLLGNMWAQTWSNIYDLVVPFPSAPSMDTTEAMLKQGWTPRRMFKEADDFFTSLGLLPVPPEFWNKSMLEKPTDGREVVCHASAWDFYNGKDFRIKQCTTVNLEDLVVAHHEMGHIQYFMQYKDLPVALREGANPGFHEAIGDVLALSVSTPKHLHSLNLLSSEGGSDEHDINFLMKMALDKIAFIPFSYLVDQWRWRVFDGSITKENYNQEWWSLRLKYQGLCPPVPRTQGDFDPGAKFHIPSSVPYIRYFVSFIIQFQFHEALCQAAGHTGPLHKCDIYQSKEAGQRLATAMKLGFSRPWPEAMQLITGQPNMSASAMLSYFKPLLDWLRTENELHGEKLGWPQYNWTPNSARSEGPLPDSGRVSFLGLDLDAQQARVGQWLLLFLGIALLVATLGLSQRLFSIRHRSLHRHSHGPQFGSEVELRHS

As to “Lys - Ser - Val - Leu - Leu - Lys - Phe [peptide from broccoli digest, literature]”, the ACE inhibition rate in the assay with ACE [1] is 42.86%.

As for ERFNVE [ERFNVE], the IC50 at ACE [2] (setting [3]) was 3340 µM.

For MELVLK [MELVLK], the IC50 at ACE [2] (chemosynthetic peptide, purity greater than 95%, read-out: IC50 (converted)) is 2600 µM.

For TELVLK [TELVLK], the IC50 on ACE [2] (setting [3]) is 1400 µM.

In the case of FDDKLD [FDDKLD], the IC50 at ACE [2] (setting [3]) is 931 µM.
